Experimental data as given in patent US20240287463A1, “INDUCIBLE TISSUE CONSTRUCTS AND USES THEREOF” (Massachusetts Institute of Technology, priority 2020, published 2024).

Tests used:
Format in all cases: cell-based
[1] = test system: primary human hepatocytes; assay: hepatocyte phenotypic stability (albumin production) in MPCC after fibroblast deletion; conditions: CID at day 1, day 3 or day 7 of 2D MPCC
From the text: Specifically, MPCC were fabricated as described previously (S. R. Khetani and S. N. Bhatia (2005) Nat. Biotechnol 26, 120; S. March et al. (2015) Nat. Protoc. 10, 2007). Briefly, collagen was adsorbed in each well of a 96 well plate (glass bottom), and then patterned using an elastomeric polydimethysiloxane mold and oxygen plasma gas ablation. Human hepatocytes were thawed and seeded (70 k/well) on the collagen islands (500 μm with 1,200 μm center-to-center spacing). Adhered hepatocytes (˜10 k/well) were allowed to spread overnight before fibroblasts were seeded for co-culture (7 k/well). Supernatant was collected from cultures every other day and stored at −20° C. Human albumin was quantified using an enzyme-linked immunosorbent assay using a sheep anti-rat albumin antibody (ELISA) (Bethyl Laboratories) and 3,3′,5,5′-tetramethylbenzidine (TMB, Thermo Fisher). Urea concentration was measured using a colorimetric (diacetylmonoxime) assay with acid and heat (Stanbio Labs). CYP3A4 activity was assessed with the luminogenic P450-GloTM CYP450 assay kit (Promega) for nonlytic assays using cultured cells. […]
To query the dependence of hepatocytes on fibroblasts, fibroblasts were deleted from MPCCs by CID treatment at various time points and albumin production was assessed as a surrogate marker of phenotypic stability.

[2] = test system: iCasp9-GFP J2s; assay: Annexin V / SYTOX apoptosis flow cytometry; conditions: within the first hour after CID treatment
From the text: Inducible caspase-9 (iCasp9), which is activated by treatment with a small molecule chemical inducer of dimerization (CID; also known as rapalog, an analog of rapamycin) and leads to subsequent cell death through the intrinsic apoptosis pathway was utilized (FIG. 1A). The safety and efficacy of the iCasp9 transgene and CID have previously been shown in vitro and in vivo in animals and humans (A. Di Stasi, et al. (2011) dx.doi.org/10.1056/NEJMoa1106152; T. Gargett and M. P. Brown (2014) Front. Pharmacol. 5; K. C. Straathof, et al. (2005) Blood 105, 4247, each of which is herein incorporated by this reference). To generate inducible cells, 3T3-J2 fibroblasts (‘J2’) were transduced with lentivirus with a bidirectional expression cassette encoding iCasp9 and GFP genes (#15567 pMSCV-F-del Casp9.IRES.GFP; cloned to a lentivirus plasmid backbone with an SFFV promoter). FACS was used to enrich the infected population for the 15% highest-expression GFP+ cells. […]
After iCasp9-GFP J2 fibroblasts were exposed to CID, iCasp9 dimers were detected by staining with a caspase-9 antibody (FIG. 1C). […] To confirm that CID-triggered caspase-9 activation led to apoptosis, unfixed cells were stained with Annexin V, which binds to an early indicator of apoptosis, and SYTOX, a general marker of cell death, and analyzed by flow cytometry.

[3] = test system: primary human hepatocytes; assay: hepatocyte function and toxicity in 3D spheroid-laden hydrogels after fibroblast deletion
From the text: (§1) Specifically, MPCC were fabricated as described previously (S. R. Khetani and S. N. Bhatia (2005) Nat. Biotechnol 26, 120; S. March et al. (2015) Nat. Protoc. 10, 2007). Briefly, collagen was adsorbed in each well of a 96 well plate (glass bottom), and then patterned using an elastomeric polydimethysiloxane mold and oxygen plasma gas ablation. Human hepatocytes were thawed and seeded (70 k/well) on the collagen islands (500 μm with 1,200 μm center-to-center spacing). Adhered hepatocytes (˜10 k/well) were allowed to spread overnight before fibroblasts were seeded for co-culture (7 k/well). Supernatant was collected from cultures every other day and stored at −20° C. Human albumin was quantified using an enzyme-linked immunosorbent assay using a sheep anti-rat albumin antibody (ELISA) (Bethyl Laboratories) and 3,3′,5,5′-tetramethylbenzidine (TMB, Thermo Fisher). Urea concentration was measured using a colorimetric (diacetylmonoxime) assay with acid and heat (Stanbio Labs). CYP3A4 activity was assessed with the luminogenic P450-GloTM CYP450 assay kit (Promega) for nonlytic assays using cultured cells. Cultures were pre-treated with 2 μM rifampin or 1:1,000 DMSO vehicle control prepared in hepatocyte maintenance media for 72 hours (daily replenishment) where indicated.
Previous work identified that phenotypic stability and longevity of primary hepatocytes cultured as 3D microtissues were transiently supported by pre-aggregation to increase homotypic cell-cell interactions, and were further enhanced upon inclusion of J2 fibroblasts (C. Y. Li et al. (2014) Tissue Eng. Part A 20, 2200). Thus, iCasp9-GFP J2 fibroblasts were incorporated into these 3D hepatic ensembles, which were fabricated by plating primary human hepatocytes and fibroblasts in microwells in order to facilitate physical cell-cell contacts, as previously described (K. Stevens et al. (2013) Nat. Commun. 4, 1847; K. R. Stevens et al. (2017) Sci. Transl. Med. 9, eaaah5505). Specifically, cryopreserved 365 human hepatocytes were thawed and immediately plated with fibroblasts in AggreWells (400 μm pyramidal microwells) and incubated overnight. Hepatic spheroids (about 150 hepatocytes per spheroid, ˜100 μm diameter) were imaged and analyzed to quantify the extent of spheroid compaction. Individual spheroids were isolated manually using Fiji, (J. Schindelin et al. (2012) Nat. Methods 9, 676). […] Resulting morphologies were traced and measured for circularity. […]
To probe the dependence of hepatocyte phenotypic stability on fibroblast co-culture in 3D, fibroblasts were deleted from spheroid-laden hydrogel cultures using CAMEO after 1 day of hepatocyte-fibroblast co-culture. Fibroblasts were robustly removed from 3D co-cultures as described in the above Examples, and detected by immunofluorescence imaging (FIG. 3I). […]

[4] = test system: iCasp9-GFP J2 population; assay: fibroblast removal from 2D micropatterned co-cultures (MPCC); conditions: 50 nM CID
From the text: as §1, with “indicated. […]” for “indicated.”

**Q.** With CC[C@H](C(=O)N1CCCC[C@H]1C(=O)O[C@H](CCc1ccc(OC)c(OC)c1)c1cccc(OCC(=O)NCC(CNC(=O)COc2cccc([C@@H](CCc3ccc(OC)c(OC)c3)OC(=O)[C@@H]3CCCCN3C(=O)[C@@H](CC)c3cc(OC)c(OC)c(OC)c3)c2)CN(C)C)c1)c1cc(OC)c(OC)c(OC)c1 [CID, AP20187] as the molecule, how does the “hepatocyte phenotypic stability (albumin production)” value [1] read?
**A.** The value was “loss of hepatocyte phenotypic stability”.

**Q.** What about the “proportion of iCasp9-GFP J2s undergoing apoptosis” value [2] of the same molecule?
**A.** Its value is “increased in a time-dependent manner”.

**Q.** What about the hepatocyte function ([3]; 50 nM CID after 3 or 7 days of co-culture) of the same molecule?
**A.** Its hepatocyte function is “negatively impacted”.

**Q.** What about the “hepatocyte phenotype by albumin secretion rate” value ([3]; CID after 1 day of co-culture, followed up to 3 weeks) of the same molecule?
**A.** The value was “stable phenotype”.

**Q.** What about the “hepatocyte function, CID pre- versus post-encapsulation in fibrin” value ([3]; data not shown) of the same molecule?
**A.** The value was “No difference”.

**Q.** And the “toxicity to co-cultured hepatocytes” value ([3]; spheroid-laden hydrogel cultures, data not shown)?
**A.** Its value is “without any apparent toxicity”.

**Q.** And the “removal of fibroblasts from MPCC” value [4]?
**A.** Its value is “selective removal of the iCasp9-GFP J2 population”.
